Test results: patent US20250034165A1, “COMPOUND CONTAINING CYCLOALKYL OR HALOALKYL” (CHIA TAI TIANQING PHARMACEUTICAL GROUP CO., LTD., priority 2021, published 2025)
pIC50: −log10 of the molar value.

Key:
[1] = molecular target: EGFR (d746-750 (d19)/T790M) (Homo sapiens (Human), UniProt P00533, DEL746-750/T790M); assay: Inhibitory activity for EGFR (d746-750 (d19)/T790M) kinase; format: biochemical; details: ATP 5 μM
Description: 1.3 Screening for Inhibitory Activity for EGFR (d746-750 (d19)/T790M) Kinase
(§1) A 50 ng/μL EGFR (d746-750/T790M, Carna) stock solution was diluted with a kinase buffer (50 mM HEPES, 10 mM MgCl2, 2 mM DTT, 1 mM EGTA, 0.01% Tween 20), and 6 μL of 1.67× working solution at 0.005 ng/μL (final concentration: 0.003 ng/μL) was added to each well. Different compounds dissolved in DMSO were added to the wells using a nanoliter pipettor, resulting in the final concentrations of the compounds of 10 nM to 0.0024 nM (4-fold gradient for 7 concentrations in total), and blank control wells (without enzyme) and negative control wells (with enzyme, plus vehicle DMSO) were set, 2 replicate wells for each concentration. After enzyme was reacted with the compound or vehicle for 30 min, 5×ATP at 25 μM (final concentration: 5 μM, Sigma) prepared with a kinase buffer was mixed with 5× substrate at 0.5 μM (final concentration: 0.1 μM, ULight-poly GT, PerkinElmer) at a ratio of 1:1 (v:v), and the mixture was added to each well at 4 μL/well. After being sealed with a film, the plate was incubated at room temperature for 2 h, and then 5 μL of 4×EDTA at 40 mM (final concentration: 10 mM) was added to each well. After the plate was incubated for 5 min at room temperature, 5 μL of 4× detection reagent at 8 nM (final concentration: 2 nM, Eu-anti-phospho-tyrosine antibody, PerkinElmer) was added to each well. After being incubated at room temperature for 1 h, the plate was read using a PerkinElmer Envision multi-mode microplate reader (excitation: 320 nm, emission: 665 nm), and IC50 was calculated by four-parameter fitting.

[2] = molecular target: EGFR (d746-750/T790M/C797S) (Homo sapiens (Human), UniProt P00533, C797S/DEL746-750/T790M); assay: Inhibitory activity for EGFR (d746-750/T790M/C797S) kinase; format: biochemical; details: ATP 5 μM; read-out: EGFR(d19/T790M/C797S) (IC50)
Description: 1.5 Screening for Inhibitory Activity for EGFR (d746-750/T790M/C797S) Kinase
as §1, with “(d746-750/T790M/C797S, BPS)” for “(d746-750/T790M, Carna)”, “0.05” for “0.005”, “0.03” for “0.003”

[3] = test system: BAF3-EGFR (L858R/T790M/C797S) cells; assay: Inhibition of proliferation of BAF3-EGFR (L858R/T790M/C797S) cells, CCK-8; format: cell-based; details: Ba/F3 EGFR, 72 h, read-out: BAF3(EGFR T790M L858R C797S) cell inhibitory activity IC50
Description: A flask of EGFR (L858R/T790M/C797S) cells in the logarithmic growth phase and good conditions was taken, and the cells were collected and added to a centrifuge tube. 20 μL of cells were taken and counted, and the required number of cells (mL) was pipetted and centrifuged at 1200 rpm for 3 min. The supernatant was discarded, and an appropriate amount of plating medium (RPMI medium+10% FBS) was added to adjust the cell density to 1.5×10^5 cells/mL. The cells were seeded on a 96-well plate at 100 μL/well using a multi-channel pipette and cultured in a cell incubator at 37° C., 5% CO2 with saturated humidity. After overnight incubation, compounds were loaded using a nanoliter pipettor, 2 duplicate wells were set for each concentration, and cells without compound added were used as negative controls.
Inhibition rate (%)=(mean value of negative control group-mean value of experimental group)/(mean value of negative control group−mean value of blank group)×100%.
A dose-response curve was fitted by four-parameter analysis, with the logarithm of compound concentration serving as abscissa and inhibition rate serving as ordinate, such that IC50 was calculated.

EGFR (d746-750/T790M/C797S), sequence (P00533 other isoform, or with tags, fused parts or gaps T790M/C797S/del 1-694/del 746-750 limits assumed): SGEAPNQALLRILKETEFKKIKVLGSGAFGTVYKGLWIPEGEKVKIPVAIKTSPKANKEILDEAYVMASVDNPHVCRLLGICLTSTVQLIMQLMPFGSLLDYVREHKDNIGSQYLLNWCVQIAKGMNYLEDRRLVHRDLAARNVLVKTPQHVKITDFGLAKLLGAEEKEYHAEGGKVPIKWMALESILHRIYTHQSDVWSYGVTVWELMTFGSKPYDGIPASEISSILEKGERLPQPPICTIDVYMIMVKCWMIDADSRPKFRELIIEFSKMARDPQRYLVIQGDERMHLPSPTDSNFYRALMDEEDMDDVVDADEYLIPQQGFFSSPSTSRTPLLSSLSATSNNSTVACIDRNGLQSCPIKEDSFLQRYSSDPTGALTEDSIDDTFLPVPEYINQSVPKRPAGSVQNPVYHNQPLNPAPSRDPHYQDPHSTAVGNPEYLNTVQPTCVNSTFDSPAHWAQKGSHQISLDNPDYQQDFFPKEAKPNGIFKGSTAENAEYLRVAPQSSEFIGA
EGFR (d746-750 (d19)/T790M), sequence (P00533 other isoform, or with tags, fused parts or gaps T790M/del 1-668/del 746-750 limits assumed): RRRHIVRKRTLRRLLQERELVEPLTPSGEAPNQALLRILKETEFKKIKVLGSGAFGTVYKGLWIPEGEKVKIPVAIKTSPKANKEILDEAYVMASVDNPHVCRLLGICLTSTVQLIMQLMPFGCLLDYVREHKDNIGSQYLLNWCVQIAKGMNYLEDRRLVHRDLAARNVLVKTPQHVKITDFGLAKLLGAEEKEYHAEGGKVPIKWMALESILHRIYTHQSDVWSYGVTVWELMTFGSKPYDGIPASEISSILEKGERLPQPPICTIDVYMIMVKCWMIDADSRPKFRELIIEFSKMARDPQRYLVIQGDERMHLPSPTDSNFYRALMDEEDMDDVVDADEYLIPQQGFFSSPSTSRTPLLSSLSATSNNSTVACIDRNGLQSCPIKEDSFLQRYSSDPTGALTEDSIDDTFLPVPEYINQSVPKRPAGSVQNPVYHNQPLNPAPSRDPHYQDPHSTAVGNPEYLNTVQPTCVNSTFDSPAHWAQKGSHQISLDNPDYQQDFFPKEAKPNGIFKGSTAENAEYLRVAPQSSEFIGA

pIC50 [1] | pIC50 [2] | pIC50 [3] | SMILES
10.24 | 9.96 |  | Cc1cc2cc(n1)-c1cnn(C3CC3)c1OCCC[C@@H](C)CN1/C(=N/C2=O)Nc2cc(N[C@@H]3CCOC3)ccc21 [Example 13]
9.96 |  |  | Cc1cc2cc(n1)-c1cnn(C)c1OCCC[C@@H](C1CC1)CN1/C(=N/C2=O)Nc2cc(NC3CC(N(C)C)C3)ccc21 (some centres unmarked) [Example 93]
 |  | > 8.30 | [2H]C([2H])([2H])N(C[C@@H](C)Nc1ccc2c(c1)N1C[C@H](C3CC3)CCCOc3c(cnn3C)-c3cc(cc(C)n3)C(=O)/N=C/1N2)C([2H])([2H])[2H] [Example 145]
10.82 | 10.55 |  | Cc1cc2cc(n1)-c1cnn(C)c1OCCC[C@@H](C1CC1)CN1/C(=N/C2=O)Nc2cc(NC[C@H]3COCCO3)ccc21 [Example 19]
10.42 | 10.28 |  | Cc1cc2cc(n1)-c1cnn(C)c1OCCC[C@@H](C1CC1)CN1/C(=N/C2=O)Nc2cc(NCCCN)ccc21 [Example 50]
9.12 |  |  | Cc1cc2cc(n1)-c1cnn(C)c1OCCC[C@@H](C1CC1)CN1/C(=N/C2=O)Nc2cc(NC3CC(F)C3)ccc21 (some centres unmarked) [Example 94]
10.89 | 10.70 | > 8.30 | Cc1cc2cc(n1)-c1cnn(C)c1OCCC[C@@H](C1CC1)CN1/C(=N/C2=O)Nc2cc(NCCCCN(C)C)ccc21 [Example 51]
10.68 | 10.55 | > 8.30 | CNCCCCNc1ccc2c(c1)N/C1=N\C(=O)c3cc(C)nc(c3)-c3cnn(C)c3OCCC[C@@H](C3CC3)CN12 [Example 52]
9.82 | 9.77 |  | Cc1cc2cc(n1)-c1cnn(C3CC3)c1OCCC[C@@H](C)CN1/C(=N/C2=O)Nc2cc(NC3CCN(C)CC3)ccc21 [Example 12]
10.49 | 10.23 |  | Cc1cc2cc(n1)-c1cnn(C)c1OCCC[C@@H](C1CC1)CN1/C(=N/C2=O)Nc2ccc(N3CC[C@H](O)C3)cc21 [Example 21]
10.74 | 10.38 |  | Cc1cc2cc(n1)-c1cnn(C)c1OCCC[C@@H](C1CC1)CN1/C(=N/C2=O)Nc2ccc(NCCCN3CCCC3)cc21 [Example 84]
11.01 | 10.89 | > 8.30 | Cc1cc2cc(n1)-c1cnn(C)c1OCCC[C@@H](C1CC1)CN1/C(=N/C2=O)Nc2cc(NCCCCN)ccc21 [Example 53]
10.30 | 10.13 |  | Cc1cc2cc(n1)-c1cnn(C3CC3)c1OCCC[C@@H](C)CN1/C(=N/C2=O)Nc2cc(NCCN3CCOCC3)ccc21 [Example 5]
10.52 | 10.34 |  | Cc1cc2cc(n1)-c1cnn(C)c1OCCC[C@@H](C1CC1)CN1/C(=N/C2=O)Nc2cc(NC3COC3(C)C)ccc21 (some centres unmarked) [Example 30]
10.74 | 10.51 |  | Cc1cc2cc(n1)-c1cnn(C)c1OCCC[C@@H](C1CC1)CN1/C(=N/C2=O)Nc2cc(NC3C(C)(C)OC3(C)C)ccc21 [Example 31]
10.22 | 10.20 |  | Cc1cc2cc(n1)-c1cnn(C3CC3)c1OCCC[C@@H](C)CN1/C(=N/C2=O)Nc2ccc(N3CC[C@H](O)C3)cc21 [Example 16]
11.00 | 10.89 |  | Cc1cc2cc(n1)-c1cnn(C)c1OCCC[C@@H](C1CC1)CN1/C(=N/C2=O)Nc2cc(NC3CNC3)ccc21 [Example 32]

pIC50 [1] | pIC50 [2] | pIC50 [3] | SMILES
10.85 | 10.55 |  | Cc1cc2cc(n1)-c1cnn(C)c1OCCC[C@@H](C1CC1)CN1/C(=N/C2=O)Nc2cc(NCCN3CCOCC3)ccc21 [Example 3]
10.82 | 10.59 |  | Cc1cc2cc(n1)-c1cnn(C)c1OCCC[C@@H](C1CC1)CN1/C(=N/C2=O)Nc2cc(N[C@@H]3CCOC3)ccc21 [Example 43]
 |  | > 8.30 | Cc1cc2cc(n1)-c1cnn(C)c1OCCC[C@@H](C1CC1)CN1/C(=N/C2=O)Nc2cc(NCCN3CCCCC3)ccc21 [Example 73]
 | 10.07 | > 8.30 | Cc1cc2cc(n1)-c1cnn(C)c1OCCC[C@@H](C1CC1)CN1/C(=N/C2=O)Nc2cc(N[C@H](C)CN3CCCCC3)ccc21 [Example 137]
 |  | > 8.30 | Cc1cc2cc(n1)-c1cnn(C)c1OCCC[C@@H](C1CC1)CN1/C(=N/C2=O)Nc2cc(N[C@@H]3CC[C@H](O)C3)ccc21 [Example 150]
10.85 | 10.80 |  | Cc1cc2cc(n1)-c1cnn(C)c1OCCC[C@@H](C1CC1)CN1/C(=N/C2=O)Nc2cc(NC3(C)CNC3)ccc21 [Example 34]
10.55 | 9.82 |  | Cc1cc2cc(n1)-c1cnn(C)c1OCCC[C@@H](C1CC1)CN1/C(=N/C2=O)Nc2cc(NC3CCC3)ccc21 [Example 79]
 | 10.14 | > 8.30 | Cc1cc2cc(n1)-c1cnn(C)c1OCCC[C@@H](C1CC1)CN1/C(=N/C2=O)Nc2ccc(NC(=O)CN(C)C)cc21 [Example 111]
 | 10.08 | > 8.30 | Cc1cc2cc(n1)-c1cnn(C)c1OCCC[C@@H](C1CC1)CN1/C(=N/C2=O)Nc2cc(N[C@H](C)CN(C)C)ccc21 [Example 67]
 | 10.18 |  | Cc1cc2cc(n1)-c1cnn(C)c1OCCC[C@@H](C1CC1)CN1/C(=N/C2=O)Nc2ccc(NC(=O)CCCN(C)C)cc21 [Example 113]
10.24 | 9.50 |  | Cc1cc2cc(n1)-c1cnn(C)c1OCCC[C@@H](C1CC1)CN1/C(=N/C2=O)Nc2ccc(NC3CCCC3)cc21 [Example 87]
 | 10.10 | > 8.30 | Cc1cc2cc(n1)-c1cnn(C)c1OCCC[C@@H](C1CC1)CN1/C(=N/C2=O)Nc2ccc(N[C@@H](C)CN3CCCCC3)cc21 [Example 142]
10.52 | 10.41 |  | CNCCCNc1ccc2c(c1)N/C1=N\C(=O)c3cc(C)nc(c3)-c3cnn(C)c3OCCC[C@@H](C3CC3)CN12 [Example 49]
 | 10.11 | > 8.30 | Cc1cc2cc(n1)-c1cnn(C)c1OCCC[C@@H](C1CC1)CN1/C(=N/C2=O)Nc2cc(N[C@@H](C)CCN3CCCCC3)ccc21 [Example 140]
10.70 | 10.38 |  | Cc1cc2cc(n1)-c1cnn(C)c1OCCC[C@@H](C1CC1)CN1/C(=N/C2=O)Nc2cc(N[C@@H]3CCCOC3)ccc21 [Example 18]
10.17 | 10.00 |  | Cc1cc2cc(n1)-c1cnn(C3CC3)c1OCCC[C@@H](C)CN1/C(=N/C2=O)Nc2cc(NC[C@H]3COCCO3)ccc21 [Example 14]
 | 10.06 | > 8.30 | Cc1cc2cc(n1)-c1cnn(C)c1OCCC[C@@H](C1CC1)CN1/C(=N/C2=O)Nc2cc(N[C@@H](C)CN3CCCCC3)ccc21 [Example 138]
